Consider one compound from BindingDB's records for doi:10.1021/jm00033a017 (Dupont Pharmaceuticals, 1994).

Structures are written as SMILES.

The target in the test is Prostaglandin G/H synthase 1 (Bos taurus) (UniProt O62664). The experiment in a line: Inhibitory activity against bovine seminal vesicle prostaglandin synthetase.
Chain of Prostaglandin G/H synthase 1 (Bos taurus) (O62664 whole entry, looked up): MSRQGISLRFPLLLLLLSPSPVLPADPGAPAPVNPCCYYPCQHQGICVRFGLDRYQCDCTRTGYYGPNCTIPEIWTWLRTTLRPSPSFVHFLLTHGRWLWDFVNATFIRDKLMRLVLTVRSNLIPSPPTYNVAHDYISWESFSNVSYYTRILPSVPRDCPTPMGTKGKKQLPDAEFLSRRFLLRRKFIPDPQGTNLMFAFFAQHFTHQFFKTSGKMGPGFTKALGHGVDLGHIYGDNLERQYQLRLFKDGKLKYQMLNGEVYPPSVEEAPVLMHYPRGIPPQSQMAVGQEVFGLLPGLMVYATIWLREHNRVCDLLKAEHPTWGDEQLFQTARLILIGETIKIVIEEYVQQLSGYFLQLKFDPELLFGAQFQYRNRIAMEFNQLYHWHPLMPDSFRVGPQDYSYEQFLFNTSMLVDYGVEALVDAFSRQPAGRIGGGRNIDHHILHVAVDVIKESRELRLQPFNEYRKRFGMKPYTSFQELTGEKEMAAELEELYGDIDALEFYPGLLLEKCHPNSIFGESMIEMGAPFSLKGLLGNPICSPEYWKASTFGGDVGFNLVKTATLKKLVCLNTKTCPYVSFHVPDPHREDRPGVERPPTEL

`CS(=O)(=O)c1ccc(-c2[nH]c(SC#N)cc2-c2ccc(F)cc2)cc1` [3-(4-Fluoro-phenyl)-2-(4-methanesulfonyl-phenyl)-5-thiocyanato-1H-pyrrole]: half-maximal inhibition (IC50) was put at 6.2 µM.
